The source made the active and inactive calls. The calls are words filed in the database; no cut-off is given here.
Tests used:
MV4-11 [1] = test: Antiproliferative activity against CRBN-deficient human MV4-11 cells assessed as cell growth inhibition incubated for 72 hrs by resazurin dye based fluorescence analysis; assay type: functional
MOLM-13 = test: Antiproliferative activity against human MOLM-13 cells harboring FLT3-ITD mutation assessed as cell growth inhibition incubated for 72 hrs by resazurin dye based fluorescence analysis; assay type: functional
RS4-11 = test: Antiproliferative activity against human RS4-11 cells assessed as cell growth inhibition incubated for 72 hrs by resazurin dye based fluorescence analysis; assay type: functional
HL-60 = test: Antiproliferative activity against human HL-60 cells assessed as cell growth inhibition incubated for 72 hrs by resazurin dye based fluorescence analysis; assay type: functional
THP-1 = test: Antiproliferative activity against human THP-1 cells assessed as cell growth inhibition incubated for 72 hrs by resazurin dye based fluorescence analysis; assay type: functional
K562 = test: Antiproliferative activity against human K562 cells assessed as cell growth inhibition incubated for 72 hrs by resazurin dye based fluorescence analysis; assay type: functional
[2] = target: Receptor-type tyrosine-protein kinase FLT3 (Homo sapiens) (UniProt P36888); test: Inhibition of human FLT3 assessed as residual activity at 100 nM relative to control
[3] = tested on: Receptor-type tyrosine-protein kinase FLT3 (Homo sapiens), P36888 [UNDEFINED MUTATION]; test: Inhibition of FLT3 autophosphorylation at Y589/591 residue in human MV4-11 cells harboring FLT3-ITD mutation at 0.004 to 2.5 uM incubated for 16 hrs by immunoblot analysis; assay type: cell-based; details: dose 0.004-2.5 µM
[4] = target: T1, Protein cereblon/Receptor-type tyrosine-protein kinase FLT3 (Homo sapiens) (UniProt P36888+Q96SW2); test: PROTAC activity at CRBN/FLT3 in human MV4-11 cells harboring FLT3-ITD mutation assessed as induction of protein degradation at low nanomolar concentrations incubated for 16 hrs by immunoblot analysis; assay type: cell-based
[5] = target: T1, Protein cereblon/Receptor-type tyrosine-protein kinase FLT3 (Homo sapiens); test: PROTAC activity at CRBN/FLT3 in CRBN-deficient human MV4-11 cells assessed as induction of protein degradation at 0.004 to 2.5 uM incubated for 16 hrs by immunoblot analysis; assay type: cell-based; details: dose 0.004-2.5 µM
[6] = target: Receptor-type tyrosine-protein kinase FLT3 (Homo sapiens) (UniProt P36888); test: Stabilization of FLT3 in CRBN-deficient human MV4-11 at 0.004 to 2.5 uM incubated for 16 hrs by immunoblot analysis; assay type: cell-based; details: dose 0.004-2.5 µM
MV4-11 [7] = test: Induction of apoptosis in human MV4-11 cells assessed as activation of caspase 3 incubated for 16 hrs in presence of Ac-DEVD-AMC by fluorescence microplate reader analysis; assay type: functional, cell-based; details: dose 0.004-2.5 µM
MV4-11 [8] = test: Induction of apoptosis in CRBN-deficient human MV4-11 cells assessed as activation of caspase 3 at 0.004 to 25 uM incubated for 16 hrs in presence of Ac-DEVD-AMC by fluorescence microplate reader analysis; assay type: functional, cell-based; details: dose 0.004-25 µM
MV4-11 [9] = test: Induction of cell cycle arrest in human MV4-11 cells assessed as accumulation of cells at G2/M phase at 0.004 uM incubated for 16 hrs by PI staining based flow cytometry analysis (reference value: 10.86%); assay type: functional
MV4-11 [10] = test: Induction of cell cycle arrest in human MV4-11 cells assessed as accumulation of cells at G1 phase at 0.02 uM incubated for 16 hrs by PI staining based flow cytometry analysis (reference value: 62.97%); assay type: functional
MV4-11 [11] = test: Induction of cell cycle arrest in human MV4-11 cells assessed as accumulation of cells at G2/M phase at 0.02 uM incubated for 16 hrs by PI staining based flow cytometry analysis (reference value: 10.86%); assay type: functional
MV4-11 [12] = test: Induction of cell cycle arrest in human MV4-11 cells assessed as accumulation of cells at subG1 phase at 0.02 uM incubated for 16 hrs by PI staining based flow cytometry analysis (reference value: 10.51%); assay type: functional
MV4-11 [13] = test: Induction of cell cycle arrest in human MV4-11 cells assessed as accumulation of cells at S phase at 0.1 uM incubated for 16 hrs by PI staining based flow cytometry analysis (reference value: 26.16%); assay type: functional
MV4-11 [14] = test: Induction of cell cycle arrest in human MV4-11 cells assessed as accumulation of cells at subG1 phase at 0.1 uM incubated for 16 hrs by PI staining based flow cytometry analysis (reference value: 10.51%); assay type: functional
MV4-11 [15] = test: Induction of cell cycle arrest in human MV4-11 cells assessed as accumulation of cells at G1 phase at 0.5 uM incubated for 16 hrs by PI staining based flow cytometry analysis (reference value: 62.97%); assay type: functional
MV4-11 [16] = test: Induction of cell cycle arrest in human MV4-11 cells assessed as accumulation of cells at G2/M phase at 0.5 uM incubated for 16 hrs by PI staining based flow cytometry analysis (reference value: 10.86%); assay type: functional
MV4-11 [17] = test: Induction of cell cycle arrest in human MV4-11 cells assessed as accumulation of cells at S phase at 2.5 uM incubated for 16 hrs by PI staining based flow cytometry analysis (reference value: 26.16%); assay type: functional
MV4-11 [18] = test: Induction of cell cycle arrest in CRBN-deficient human MV4-11 cells assessed as accumulation of cells at G2/M phase at 0.004 uM incubated for 16 hrs by PI staining based flow cytometry analysis (reference value: 9.34%); assay type: functional
MV4-11 [19] = test: Induction of cell cycle arrest in CRBN-deficient human MV4-11 cells assessed as accumulation of cells at G1 phase at 0.02 uM incubated for 16 hrs by PI staining based flow cytometry analysis (reference value: 54.05%); assay type: functional
MV4-11 [20] = test: Induction of cell cycle arrest in CRBN-deficient human MV4-11 cells assessed as accumulation of cells at G2/M phase at 0.1 uM incubated for 16 hrs by PI staining based flow cytometry analysis (reference value: 9.34%); assay type: functional
MV4-11 [21] = test: Induction of cell cycle arrest in CRBN-deficient human MV4-11 cells assessed as accumulation of cells at S phase at 0.5 uM incubated for 16 hrs by PI staining based flow cytometry analysis (reference value: 36.91%); assay type: functional
MV4-11 [22] = test: Induction of cell cycle arrest in CRBN-deficient human MV4-11 cells assessed as accumulation of cells at sub-G1 phase at 2.5 uM incubated for 16 hrs by PI staining based flow cytometry analysis (reference value: 12.52%); assay type: functional
MV4-11 [23] = test: Downregulation of HOXA9 gene expression in human MV4-11 cells incubated for 4 hrs by qRT-PCR analysis; assay type: functional, cell-based; details: dose 0.004-2.5 µM
MV4-11 [24] = test: Downregulation of Bcl-2 gene expression in human MV4-11 cells incubated for 4 hrs by qRT-PCR analysis; assay type: functional, cell-based; details: dose 0.004-2.5 µM
MV4-11 [25] = test: Downregulation of Myc gene expression in human MV4-11 cells incubated for 4 hrs by qRT-PCR analysis; assay type: functional, cell-based; details: dose 0.004-2.5 µM
[26] = target: Receptor-type tyrosine-protein kinase FLT3 (Homo sapiens) (UniProt P36888); test: Inhibition of FLT3 signalling pathway in human MV4-11 cells assessed as reduction in STAT5 phosphorylation at Y694 residues at 0.1 to 0.5 uM preincubated for 90 mins with 4-hydroxythalidomide followed by compound addition and further incubated for 16 hrs by immunoblot analysis; assay type: cell-based; details: dose 0.1-0.5 µM
[27] = target: Protein cereblon/Cyclin-dependent kinase 9 (Homo sapiens) (UniProt P50750+Q96SW2); test: PROTAC activity at CRBN/CDK9 in human MV4-11 cells at 0.1 to 0.5 uM preincubated for 90 mins with 4-hydroxythalidomide followed by compound addition and further incubated for 16 hrs by immunoblot analysis; assay type: cell-based; details: dose 0.1-0.5 µM
Protein cereblon/Cyclin-dependent kinase 9 (Homo sapiens), sequence (P50750 whole entry, looked up): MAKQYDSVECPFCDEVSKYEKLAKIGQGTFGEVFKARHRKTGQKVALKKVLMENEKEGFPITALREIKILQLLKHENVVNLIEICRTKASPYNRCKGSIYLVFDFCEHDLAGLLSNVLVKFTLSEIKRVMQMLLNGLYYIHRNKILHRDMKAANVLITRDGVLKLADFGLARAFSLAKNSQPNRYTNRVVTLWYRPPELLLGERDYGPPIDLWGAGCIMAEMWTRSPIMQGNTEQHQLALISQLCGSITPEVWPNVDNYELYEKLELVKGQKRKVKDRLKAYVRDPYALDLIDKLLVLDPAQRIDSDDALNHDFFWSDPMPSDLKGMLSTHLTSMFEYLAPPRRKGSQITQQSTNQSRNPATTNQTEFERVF
Protein cereblon/Cyclin-dependent kinase 9 (Homo sapiens), sequence (Q96SW2 whole entry, looked up): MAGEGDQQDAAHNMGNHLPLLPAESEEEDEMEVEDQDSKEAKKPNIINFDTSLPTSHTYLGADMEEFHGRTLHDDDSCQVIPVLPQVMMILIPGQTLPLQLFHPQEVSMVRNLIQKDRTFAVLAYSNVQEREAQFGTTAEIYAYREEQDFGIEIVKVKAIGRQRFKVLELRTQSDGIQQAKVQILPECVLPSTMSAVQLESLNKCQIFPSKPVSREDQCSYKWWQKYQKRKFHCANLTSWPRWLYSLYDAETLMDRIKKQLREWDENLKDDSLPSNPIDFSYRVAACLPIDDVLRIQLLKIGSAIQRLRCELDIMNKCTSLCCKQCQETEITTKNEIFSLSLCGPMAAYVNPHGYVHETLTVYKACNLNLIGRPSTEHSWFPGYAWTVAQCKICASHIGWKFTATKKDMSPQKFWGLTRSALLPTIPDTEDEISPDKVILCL

Receptor-type tyrosine-protein kinase FLT3 (Homo sapiens), sequence (P36888 whole entry): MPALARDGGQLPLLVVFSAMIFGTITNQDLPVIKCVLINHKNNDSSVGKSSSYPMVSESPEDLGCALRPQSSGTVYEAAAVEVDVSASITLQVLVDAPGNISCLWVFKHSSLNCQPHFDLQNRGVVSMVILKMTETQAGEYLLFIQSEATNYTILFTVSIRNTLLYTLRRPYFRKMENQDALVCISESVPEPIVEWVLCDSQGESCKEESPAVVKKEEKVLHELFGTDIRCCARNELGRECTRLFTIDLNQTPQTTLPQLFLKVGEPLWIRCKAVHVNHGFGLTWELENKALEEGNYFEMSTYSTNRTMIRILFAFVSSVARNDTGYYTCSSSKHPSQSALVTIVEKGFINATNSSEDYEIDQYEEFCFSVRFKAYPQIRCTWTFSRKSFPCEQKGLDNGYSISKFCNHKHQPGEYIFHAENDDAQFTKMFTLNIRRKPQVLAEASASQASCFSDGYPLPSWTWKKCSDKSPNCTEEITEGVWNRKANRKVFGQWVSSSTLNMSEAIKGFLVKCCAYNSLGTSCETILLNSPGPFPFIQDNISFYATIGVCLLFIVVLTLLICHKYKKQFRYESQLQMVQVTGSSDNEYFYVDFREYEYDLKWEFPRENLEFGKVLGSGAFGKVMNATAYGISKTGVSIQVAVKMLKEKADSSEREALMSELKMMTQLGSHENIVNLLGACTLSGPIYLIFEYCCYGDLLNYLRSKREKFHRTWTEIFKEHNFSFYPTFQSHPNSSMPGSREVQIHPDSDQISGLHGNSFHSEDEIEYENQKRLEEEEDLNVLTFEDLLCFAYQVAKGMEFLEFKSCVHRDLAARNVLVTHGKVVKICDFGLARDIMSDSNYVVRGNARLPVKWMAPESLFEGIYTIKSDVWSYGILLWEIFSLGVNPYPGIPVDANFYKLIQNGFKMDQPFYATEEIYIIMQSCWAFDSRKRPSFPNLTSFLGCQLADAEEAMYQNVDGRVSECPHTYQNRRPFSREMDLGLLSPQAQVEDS
T1 sequence (P36888 27-993 limits assumed): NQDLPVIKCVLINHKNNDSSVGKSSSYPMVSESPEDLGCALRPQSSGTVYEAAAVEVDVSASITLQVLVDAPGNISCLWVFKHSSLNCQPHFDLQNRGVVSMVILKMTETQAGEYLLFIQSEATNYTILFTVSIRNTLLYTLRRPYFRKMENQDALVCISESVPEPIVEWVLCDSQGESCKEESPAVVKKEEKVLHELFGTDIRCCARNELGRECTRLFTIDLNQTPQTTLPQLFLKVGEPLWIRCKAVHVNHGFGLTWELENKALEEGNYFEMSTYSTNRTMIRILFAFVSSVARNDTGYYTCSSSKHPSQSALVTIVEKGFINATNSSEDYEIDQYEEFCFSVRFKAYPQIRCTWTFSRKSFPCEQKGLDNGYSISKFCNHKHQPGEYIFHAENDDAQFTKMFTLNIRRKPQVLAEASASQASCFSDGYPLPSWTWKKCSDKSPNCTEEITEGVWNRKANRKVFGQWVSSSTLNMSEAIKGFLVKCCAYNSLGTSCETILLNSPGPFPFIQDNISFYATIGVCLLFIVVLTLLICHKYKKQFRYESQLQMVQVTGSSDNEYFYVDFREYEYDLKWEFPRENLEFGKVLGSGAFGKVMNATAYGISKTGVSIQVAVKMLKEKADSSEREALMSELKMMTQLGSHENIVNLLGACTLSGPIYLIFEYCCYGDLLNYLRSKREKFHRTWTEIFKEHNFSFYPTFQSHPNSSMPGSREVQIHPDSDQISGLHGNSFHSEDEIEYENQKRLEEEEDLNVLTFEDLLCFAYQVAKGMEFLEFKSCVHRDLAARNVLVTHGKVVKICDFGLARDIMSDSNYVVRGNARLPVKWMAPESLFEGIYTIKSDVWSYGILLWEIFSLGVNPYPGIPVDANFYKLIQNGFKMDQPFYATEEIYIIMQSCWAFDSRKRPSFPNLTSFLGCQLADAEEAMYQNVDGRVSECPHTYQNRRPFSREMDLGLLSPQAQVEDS
T1 sequence (Q96SW2 whole entry partner): as the sequence (Q96SW2 whole entry, looked up) above
Receptor-type tyrosine-protein kinase FLT3 (Homo sapiens), P36888 [UNDEFINED MUTATION], sequence (P36888 whole entry, looked up, change not shown): as the sequence (P36888 whole entry) above

NC1CCC(Nc2nc(Nc3ccc(N4CCN(CCOCCOCCNC(=O)CNc5cccc6c5C(=O)N(C5CCC(=O)NC5=O)C6=O)CC4)cc3)c3ncn(C4CCCC4)c3n2)CC1 (configuration not stated) was tested, and the GI50 (MV4-11 [1]) was 119 nM, the GI50 (MOLM-13) was 42 nM and the GI50 (RS4-11) was 1010 nM. The GI50 (HL-60) was 6.12 µM, the GI50 (THP-1) was 9.99 µM and the GI50 (K562) was over 10 µM. For the same compound, the Activity [2] was 2%, the inhibition [3] was “Active” and the Activity [4] was “inactive”. For the same compound, the Activity [5] was “inactive”, the Activity [6] was “Active” and the Activity (MV4-11 [7]) was “Dose-Dependent Effect”. For the same compound, the Activity (MV4-11 [8]) was “inactive”, the Activity (MV4-11 [9]) was 9.03% and the Activity (MV4-11 [10]) was 82.36%. The Activity (MV4-11 [11]) was 5.22%, the Activity (MV4-11 [12]) was 12.82% and the Activity (MV4-11 [13]) was 6.42%. It also gave an Activity (MV4-11 [14]) of 20.86%, an Activity (MV4-11 [15]) of 74.6% and an Activity (MV4-11 [16]) of 6.85%. The Activity (MV4-11 [17]) was 34.87%, the Activity (MV4-11 [18]) was 8.04% and the Activity (MV4-11 [19]) was 76.96%. The Activity (MV4-11 [20]) was 3.38%, the Activity (MV4-11 [21]) was 5.13% and the Activity (MV4-11 [22]) was 20.31%. For the same compound, the Activity (MV4-11 [23]) was “Dose-Dependent Effect”, the Activity (MV4-11 [24]) was “Dose-Dependent Effect” and the Activity (MV4-11 [25]) was “Dose-Dependent Effect”. For the same compound, the inhibition [26] was “Active” and the Activity [27] was “inactive”.
